Results taken from patent US5807983A, “GNRH antagonist betides” (The Salk Institute for Biological Studies, priority 1996, dated 1998).

Test system: ovulation in mature female Sprague-Dawley rats
Assay: standard in vivo rat anti-ovulation test
Settings: injected in bacteriostatic water at about noon on the day of proestrus
Description: The betide is assayed in vivo to determine its effectiveness to prevent ovulation in female rats. Inthis test, a specified number of mature female Sprague-Dawley rats, e.g. five to ten, each having a body weight from 225 to 250 grams, are injected with a specified microgram dosage of the betide in bacteriostatic water at about noon on the day of proestrus. Proestrus is the […]. A separate female rat group is used as a control to which the peptide is not administered. Each of the control female rats ovulates on the evening of proestrus; the number of the rats treated which ovulate is recorded.

| Molecule | anti-ovulatory activity: rats ovulating out of rats treated (dosage 5 μg) | anti-ovulatory activity: rats ovulating out of rats treated (dosage 2.5 μg) | anti-ovulatory activity: rats ovulating out of rats treated (dosage 0.5 μg) | anti-ovulatory activity: rats ovulating out of rats treated (dosage 1 μg) | anti-ovulatory activity: rats ovulating out of rats treated (dosage 10 μg) |
| --- | --- | --- | --- | --- | --- |
| CC(=O)Nc1ccc(C[C@H](NC(=O)[C@H](CO)NC(=O)[C@@H](Cc2cccnc2)NC(=O)[C@@H](Cc2ccc(Cl)cc2)NC(=O)C(NC(C)=O)N(C)C(=O)c2ccc3ccccc3c2)C(=O)N[C@H](Cc2ccc(NC(C)=O)cc2)C(=O)N[C@@H](CC(C)C)C(=O)N[C@@H](CCCCNC(C)C)C(=O)N2CCC[C@H]2C(=O)N[C@H](C)C(N)=O)cc1 (single isomer, unassigned) [Betide No. 3C second isomer, Ac-D/L-Agl(methyl,2-naphthoyl)-D-4Cpa-D-3Pal-Ser-Aph(acetyl)-D-Aph(acetyl)-Leu-Lys(isopropyl)-Pro-D-Ala-NH2] | 6 out of 8 |  |  |  |  |
| Ac-D-2Nal-(4Cl)D-Phe-D-3Pal-Ser-Aph(acetyl)-D-Aph(acetyl)-Leu-Lys(isopropyl)-Pro-D/L-Agl(methyl)-NH2 [Example 8B] |  | 0/8 |  |  |  |
| CC(=O)Nc1ccc(C[C@H](NC(=O)C(NC=O)NC(=O)[C@@H](Cc2cccnc2)NC(=O)[C@@H](Cc2ccc(Cl)cc2)NC(=O)[C@@H](Cc2ccc3ccccc3c2)NC(C)=O)C(=O)N[C@H](Cc2ccc(NC(C)=O)cc2)C(=O)N[C@@H](CC(C)C)C(=O)N[C@@H](CCCCNC(C)C)C(=O)N2CCC[C@H]2C(=O)N[C@H](C)C(N)=O)cc1 (single isomer, unassigned) [Betide No. 2B first isomer, Ac-D-2Nal-D-4Cpa-D-3Pal-D/L-Agl(formyl)-Aph(Ac)-D-Aph(Ac)-Leu-Lys(isopropyl)-Pro-D-Ala-NH2] | 0/8 |  | 4 out of 5 | 2 out of 8 |  |
| CC(=O)Nc1ccc(C[C@H](NC(=O)C(NC=O)NC(=O)[C@@H](Cc2cccnc2)NC(=O)[C@@H](Cc2ccc(Cl)cc2)NC(=O)[C@@H](Cc2ccc3ccccc3c2)NC(C)=O)C(=O)N[C@H](Cc2ccc(NC(C)=O)cc2)C(=O)N[C@@H](CC(C)C)C(=O)N[C@@H](CCCCNC(C)C)C(=O)N2CCC[C@H]2C(=O)N[C@H](C)C(N)=O)cc1 (single isomer, unassigned) [Betide No. 2B other isomer, Ac-D-2Nal-D-4Cpa-D-3Pal-D/L-Agl(formyl)-Aph(Ac)-D-Aph(Ac)-Leu-Lys(isopropyl)-Pro-D-Ala-NH2] | 0/8 |  |  | 6 out of 8 |  |
| CC(=O)Nc1ccc(C[C@H](NC(=O)C(NC(=O)CO)NC(=O)[C@@H](Cc2cccnc2)NC(=O)[C@@H](Cc2ccc(Cl)cc2)NC(=O)[C@@H](Cc2ccc3ccccc3c2)NC(C)=O)C(=O)N[C@H](Cc2ccc(NC(C)=O)cc2)C(=O)N[C@@H](CC(C)C)C(=O)N[C@@H](CCCCNC(C)C)C(=O)N2CCC[C@H]2C(=O)N[C@H](C)C(N)=O)cc1 (single isomer, unassigned) [Betide No. 2A one of the isomers, Ac-D-2Nal-D-4Cpa-D-3Pal-D/L-Agl(HO-Ac)Aph(Ac)-D-Aph(Ac)-Leu-Lys(isopropyl)-Pro-D-Ala-NH2] | 2 out of 8 |  |  |  |  |
| CC(=O)Nc1ccc(C[C@H](NC(=O)C(NC(=O)CO)NC(=O)[C@@H](Cc2cccnc2)NC(=O)[C@@H](Cc2ccc(Cl)cc2)NC(=O)[C@@H](Cc2ccc3ccccc3c2)NC(C)=O)C(=O)N[C@H](Cc2ccc(NC(C)=O)cc2)C(=O)N[C@@H](CC(C)C)C(=O)N[C@@H](CCCCNC(C)C)C(=O)N2CCC[C@H]2C(=O)N[C@H](C)C(N)=O)cc1 (single isomer, unassigned) [Betide No. 2A other isomer, Ac-D-2Nal-D-4Cpa-D-3Pal-D/L-Agl(HO-Ac)Aph(Ac)-D-Aph(Ac)-Leu-Lys(isopropyl)-Pro-D-Ala-NH2] | 4 out of 8 |  |  |  |  |
| Ac-D-2Nal-D-Cpa-D-3Pal-Ser-Aph(acetyl)-D-Aph(acetyl)-D/L-Agl(methyl,isobutyryl)-Lys(isopropyl)-Pro-D-Ala-NH2 [Betide No. 6B] |  | 0 out of 8 |  | 2 out of 8 |  |
| Ac-D-2Nal-D-Cpa-D-3Pal-Ser-Aph(acetyl)-D-Aph(acetyl)-D/L-Agl(acetyl)-Lys(isopropyl)-Pro-D-Ala-NH2 [Betide No. 6C] |  |  | 4 out of 8 |  | 0 out of 8 |
| CC(=O)Nc1ccc(C[C@H](NC(=O)[C@H](CO)NC(=O)C(NC(=O)c2cccnc2)NC(=O)[C@@H](Cc2ccc(Cl)cc2)NC(=O)[C@@H](Cc2ccc3ccccc3c2)NC(C)=O)C(=O)N[C@H](Cc2ccc(NC(C)=O)cc2)C(=O)N[C@@H](CC(C)C)C(=O)N[C@@H](CCCCNC(C)C)C(=O)N2CCC[C@H]2C(=O)N[C@H](C)C(N)=O)cc1 (single isomer, unassigned) [Betide No. 1 isomer (2), Ac-D-2Nal-(4Cl)D-Phe-γ-(3-pyridyl)amidoGly-Ser-Aph(acetyl)-D-Aph(acetyl)-Leu-Lys(isopropyl)-Pro-D-Ala-NH2] |  | 0 out of 5 | 3 out of 4 | 6 out of 14 |  |
| Ac-γ-(2-naphthoyl)amidoGly-4Cl-D-Phe-D-3Pal-Ser-Aph(atz)-D-Aph(atz)- Leu-Lys(isopropyl)-Pro-D-Ala-NH2 [Betide No. 3A first isomer] |  | 0/8 |  | 5 out of 8 |  |
| Ac-D-2Nal-D-4Cpa-D-3Pal-Ser-Aph(acetyl)-D-Aph(acetyl)-D/L-Agl(methyl,acetyl)-Lys(isopropyl)-Pro-D-Ala-NH2 [Betide No. 6] |  | 2 out of 8 |  |  | 0 out of 8 |
| Ac-γ-(2-naphthoyl)amidoGly-4Cl-D-Phe-D-3Pal-Ser-Aph(atz)-D-Aph(atz)- Leu-Lys(isopropyl)-Pro-D-Ala-NH2 [Betide No. 3A second isomer] |  | 0/3 |  | 4 out of 8 |  |
| CC(=O)Nc1ccc(C[C@H](NC(=O)[C@H](CO)NC(=O)C(NC(=O)c2cccnc2)NC(=O)[C@@H](Cc2ccc(Cl)cc2)NC(=O)[C@@H](Cc2ccc3ccccc3c2)NC(C)=O)C(=O)N[C@H](Cc2ccc(NC(C)=O)cc2)C(=O)N[C@@H](CC(C)C)C(=O)N[C@@H](CCCCNC(C)C)C(=O)N2CCC[C@H]2C(=O)N[C@H](C)C(N)=O)cc1 (single isomer, unassigned) [Betide No. 1 isomer (1), Ac-D-2Nal-(4Cl)D-Phe-γ-(3-pyridyl)amidoGly-Ser-Aph(acetyl)-D-Aph(acetyl)-Leu-Lys(isopropyl)-Pro-D-Ala-NH2] |  | 0 out of 7 |  | all 3 rats ovulate |  |
| CC(=O)Nc1ccc(C[C@H](NC(=O)C(NC(=O)[C@@H](Cc2cccnc2)NC(=O)[C@@H](Cc2ccc(Cl)cc2)NC(=O)[C@@H](Cc2ccc3ccccc3c2)NC(C)=O)N(C)C=O)C(=O)N[C@H](Cc2ccc(NC(C)=O)cc2)C(=O)N[C@@H](CC(C)C)C(=O)N[C@@H](CCCCNC(C)C)C(=O)N2CCC[C@H]2C(=O)N[C@H](C)C(N)=O)cc1 (single isomer, unassigned) [Betide No. 2 one isomer, Ac-D-2Nal-D-4Cpa-D-3Pal-D/L-(methyl,formyl)aminoGly-Aph(Ac)-D-Aph(Ac)-Leu- Lys(isopropyl)-Pro-D-Ala-NH2] |  | 5 out of 8 |  |  |  |
| Ac-D-2Nal-D-4Cpa-D-3Pal-Ser-Aph(acetyl)-D-Aph(acetyl)-Leu-D/L-Agl(guanidinoacetyl)-Pro-D-Ala-NH2 [Betide No. 7B] | 0/4 | 1 out of 7 |  | 3 out of 4 |  |
| Ac-D-2Nal-(4Cl)D-Phe-D-3Pal-Ser-(4-acetyl-aminobenzyl)D/L-amidoGly-D-Aph(acetyl)-Leu-Lys(isopropyl)-Pro-D-Ala-NH2 [Betide No. 4] | 2 out of 8 |  |  |  |  |
| CC(=O)Nc1ccc(C[C@H](NC(=O)C(NC(=O)[C@@H](Cc2cccnc2)NC(=O)[C@@H](Cc2ccc(Cl)cc2)NC(=O)[C@@H](Cc2ccc3ccccc3c2)NC(C)=O)N(C)C=O)C(=O)N[C@H](Cc2ccc(NC(C)=O)cc2)C(=O)N[C@@H](CC(C)C)C(=O)N[C@@H](CCCCNC(C)C)C(=O)N2CCC[C@H]2C(=O)N[C@H](C)C(N)=O)cc1 (single isomer, unassigned) [Betide No. 2 other distereomer, Ac-D-2Nal-D-4Cpa-D-3Pal-D/L-(methyl,formyl)aminoGly-Aph(Ac)-D-Aph(Ac)-Leu- Lys(isopropyl)-Pro-D-Ala-NH2] |  | 8 out of 8 |  |  |  |
| Ac-β-D-2Nal-(4Cl)D-Phe-D-3Pal-Ser-(4-acetyl-aminobenzyl,methyl)D/L-amidoGly-D-Aph(acetyl)-Leu-Lys(isopropyl)-Pro-D-D-Ala-NH2 [Betide No. 4A] |  | 0/8 |  | 5 out of 8 |  |
| Ac-β-D-2Nal-(4Cl)D-Phe-D-3Pal-Ser-Aph(acetyl)-γ-(4-acetamidophenyl)D/L-amidoGly-Leu-Lys(isopropyl)-Pro-D-Ala-NH2 [Betide No. 5] | 1 out of 8 | 2 out of 8 |  |  |  |
